Data taken from PubChem BioAssay AID1963829 (Molecular Pharmacology Branch, DTP, NCI, 2024).
pIC50: −log10 of the molar value. Where “and” joins values, the source holds several entries; their conditions need not be identical. Equal entries are not always repeated.

System: 935938-334-R-J1-PDC complex spheroid viability
Test: Anticancer human tumor 935938-334-R-J1-PDC patient-derived small intestine adenocarcinoma cell line growth inhibition [POLQ]
Settings: for viability, T/C: stronger effect = lower value
Method: Multicellular complex tumor spheroid response to Polymerase (POL) inhibitors (novobiocin, ART-558, RP6685) in combination with a variety of drugs and investigational agents in selected tumor cell lines
The POL inhibitors (novobiocin, ART-558, and RP6685) were evaluated both individually and in combination with standard of care and investigational anticancer small molecules within a complex spheroid model of solid tumors. . Complex spheroids include a stromal component modeled by human endothelial cells (HUVEC) and fibroblasts modeled by human mesenchymal stem cells (MSCs). The concentration ranges selected for each drug and investigational agent were based upon clinically achievable concentrations if the clinical Cmax of the agent was known.
Compounds. The drugs and investigational agents: novobiocin (NSC847541), ART-558 (NSC835418), RP-6685 (NSC848927), peposertib (NSC802822), ceralasertib (NSC780249), elimusertib (NSC800525), camonsertib (NSC841442), AZD-1390 (NSC803789), olaparib (NSC753686), talazoparib (NSC767125), rucaparib (NSC756644), sotorasib (NSC818433), MRTX-1133 (NSC836407), SN-38 (NSC673596), topotecan (NSC609699), epotoside (NSC141540), doxorubicin (NSC123127), gemcitabine (NSC613327), 5-fluorouracil (NSC19893), paclitaxel (NSC125973), vemurafenib (NSC761431), MSA-2 (NSC828583), SN-011 (NSC837082), adavosertib (NSC754352), prexasertib (NSC758257), carboplatin (NSC241240) and oxaliplatin (NSC266046), were obtained from the National Cancer Institute (NCI) Developmental Therapeutics Program Chemical Repository (21). The FDA-approved anticancer drug set is available from the Developmental Therapeutics Program at https://dtp.cancer.gov/organization/dscb/obtaining/. […] The stock solutions were prepared in dimethyl sulfoxide (DMSO, Sigma-Aldrich, St. Louis, MO, cat. D2650), except for the platinum compounds which were prepared in saline (Quality Biological, Gaithersburg, MD, cat. 114-055-101), at 800-fold the tested concentration and stored at -70 degrees C prior to their use. All drugs and investigational agents were tested over a range starting from a high concentration at or near the clinical Cmax and decreasing in half-log increments. If the clinical Cmax for an agent had not been determined, the highest concentration tested was 10 microM, except for SN-38, which was tested at a high concentration of 1 microM.
Cell Culture. All cells were maintained in an incubator at 37 degrees C and 5% CO2 with 95% humidity. The PDC lines were cultured according to standard operating procedures established by the NCI PDMR (https://pdmr.cancer.gov). Table 3 of the manuscript, lists the cell lines along with the number of the three cell types plated to form the mct-spheroids and media for tumor cell growth. After thawing, all PDC lines, except 997537-175-T-J1-PDC and 415267-285-R-J2-PDC, were cultured in Matrigel-coated flasks prepared with a working solution of 1X Ham's F-12 nutrient mix, without supplementation (Thermo Fisher Scientific, cat. 11765054), 100 U/mL penicillin-streptomycin (Thermo Fisher Scientific, cat. 15140122), and 2.5% Matrigel (Corning Inc., Corning, NY, cat. 354248) for the first three passages. The two PDC lines 997537-175-T-J1-PDC and 415267-285-R-J2-PDC were cultured on uncoated flasks. The 857933-349-R-J2-PDC line was cultured in 6C/Colon 1B media containing advanced DMEM/F-12 (Thermo Fisher Scientific, cat. 12634028), 10 mM HEPES (Thermo Fisher Scientific, cat. 15630080), 1X GlutaMAX supplement (Thermo Fisher Scientific, cat. 35050061), 0.1 mg/mL primocin (InvivoGen, San Diego, CA, cat. ant-pm-2), 10% defined fetal bovine serum, heat inactivated (HyClone Laboratories Inc., Logan, UT, cat. SH30070.03HI), 50% L-WRN conditioned media (ATCC, cat. CRL-3276), 1.25 mM N-Acetyl-L-cysteine (Sigma-Aldrich, cat. A9165), 10 mM nicotinamide (Sigma-Aldrich, cat. N0636), 1X B-27 supplement (Thermo Fisher Scientific, cat. 17504044), 1X N-2 supplement (Thermo Fisher Scientific, cat. […]
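Note: spheroids exposed to drugs for seven days before viability read.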
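Throughout, for viability, T/C: 100% = DMSO vehicle control wells.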

## COc1cccc(OCCCN)c1-c1cc(Nc2cnc(C#N)cn2)n[nH]1
Compound 0.00316 µM
  viability, T/C: 93.3% and 117% and 102%
Compound 0.01 µM
  viability, T/C: 77.8% and 102% and 85.5%
Compound 0.0316 µM
  viability, T/C: 53.3% and 60.4% and 57.6%
Compound 0.1 µM
  viability, T/C: 22.6% and 36.9% and 41.6%
Compound 0.316 µM
  viability, T/C: 11.3% and 14.1% and 8.34%
Compound 1 µM
  viability, T/C: 10% and 10.2% and 9.09%
Curve of compound
  pIC50: 7.47 and 7.27 and 7.29

## CC[C@@]1(O)C(=O)OCc2c1cc1n(c2=O)Cc2cc3c(CN(C)C)c(O)ccc3nc2-1
Compound 0.000316 µM
  viability, T/C: 81.3% and 82.1% and 82.2%
Compound 0.001 µM
  viability, T/C: 103% and 107% and 86.1%
Compound 0.00316 µM
  viability, T/C: 72.4% and 89.2% and 99%
Compound 0.01 µM
  viability, T/C: 103% and 118% and 92.3%
Compound 0.0316 µM
  viability, T/C: 96.8% and 83.6% and 81.2%
Compound 0.1 µM
  viability, T/C: 49.7% and 61.4% and 63%
Curve of compound
  pIC50: 7.00 and < 7.00

## CC1COCCN1c1cc(C2(S(C)(=N)=O)CC2)nc(-c2ccnc3[nH]ccc23)n1 (configuration not stated)
Compound 0.0316 µM
  viability, T/C: 98.1% and 87.1% and 102%
Compound 0.1 µM
  viability, T/C: 112% and 108% and 84.7%
Compound 0.316 µM
  viability, T/C: 80.3% and 107% and 90.2%
Compound 1 µM
  viability, T/C: 85.9% and 79.2% and 65.2%
Compound 3.16 µM
  viability, T/C: 46.4% and 41.8% and 49.7%
Compound 10 µM
  viability, T/C: 24.2% and 18.7% and 17.1%
Curve of compound
  pIC50: 5.50 and 5.62 and 5.55

## CNCc1ccc(-c2[nH]c3cc(F)cc4c3c2CCNC4=O)cc1 + Nc1ccc(C#CCN(C(=O)Cc2ncc(C(F)(F)F)cc2C(F)(F)F)c2ccc(F)cc2)nn1
Curve of first compound, second compound 0.0316 µM
  pIC50: < 5.00
Curve of first compound, second compound 0.1 µM
  pIC50: < 5.00
Curve of first compound, second compound 0.316 µM
  pIC50: < 5.00
Curve of first compound, second compound 1 µM
  pIC50: < 5.00
Curve of first compound, second compound 3.16 µM
  pIC50: < 5.00
Curve of first compound, second compound 10 µM
  pIC50: < 5.00
Second compound 0.0316 µM, first compound 0.0316 µM
  viability, T/C: 96.6%
Second compound 0.0316 µM, first compound 0.1 µM
  viability, T/C: 104%
Second compound 0.0316 µM, first compound 0.316 µM
  viability, T/C: 105%
Second compound 0.0316 µM, first compound 1 µM
  viability, T/C: 77.2%
Second compound 0.0316 µM, first compound 3.16 µM
  viability, T/C: 80%
Second compound 0.0316 µM, first compound 10 µM
  viability, T/C: 96.1%
Second compound 0.1 µM, first compound 0.0316 µM
  viability, T/C: 85.8%
Second compound 0.1 µM, first compound 0.1 µM
  viability, T/C: 80.5%
Second compound 0.1 µM, first compound 0.316 µM
  viability, T/C: 112%
Second compound 0.1 µM, first compound 1 µM
  viability, T/C: 91.8%
Second compound 0.1 µM, first compound 3.16 µM
  viability, T/C: 100%
Second compound 0.1 µM, first compound 10 µM
  viability, T/C: 96.5%
Second compound 0.316 µM, first compound 0.0316 µM
  viability, T/C: 126%
Second compound 0.316 µM, first compound 0.1 µM
  viability, T/C: 102%
Second compound 0.316 µM, first compound 0.316 µM
  viability, T/C: 110%
Second compound 0.316 µM, first compound 1 µM
  viability, T/C: 95.7%
Second compound 0.316 µM, first compound 3.16 µM
  viability, T/C: 107%
Second compound 0.316 µM, first compound 10 µM
  viability, T/C: 89.2%
Second compound 1 µM, first compound 0.0316 µM
  viability, T/C: 77.2%
Second compound 1 µM, first compound 0.1 µM
  viability, T/C: 78.2%
Second compound 1 µM, first compound 0.316 µM
  viability, T/C: 121%
Second compound 1 µM, first compound 1 µM
  viability, T/C: 86.7%
Second compound 1 µM, first compound 3.16 µM
  viability, T/C: 111%
Second compound 1 µM, first compound 10 µM
  viability, T/C: 127%
Second compound 3.16 µM, first compound 0.0316 µM
  viability, T/C: 109%
Second compound 3.16 µM, first compound 0.1 µM
  viability, T/C: 79%
Second compound 3.16 µM, first compound 0.316 µM
  viability, T/C: 110%
Second compound 3.16 µM, first compound 1 µM
  viability, T/C: 106%
Second compound 3.16 µM, first compound 3.16 µM
  viability, T/C: 75%
Second compound 3.16 µM, first compound 10 µM
  viability, T/C: 104%
Second compound 10 µM, first compound 0.0316 µM
  viability, T/C: 111%
Second compound 10 µM, first compound 0.1 µM
  viability, T/C: 99.5%
Second compound 10 µM, first compound 0.316 µM
  viability, T/C: 107%
Second compound 10 µM, first compound 1 µM
  viability, T/C: 116%
Second compound 10 µM, first compound 3.16 µM
  viability, T/C: 106%
Second compound 10 µM, first compound 10 µM
  viability, T/C: 130%

## COc1cc2cc(C(=O)CCC(=O)O)sc2cc1OC
Compound 0.0316 µM
  viability, T/C: 106% and 94.9% and 129%
Compound 0.1 µM
  viability, T/C: 67.4% and 98.4% and 94.5%
Compound 0.316 µM
  viability, T/C: 126% and 89.9% and 95.3%
Compound 1 µM
  viability, T/C: 100% and 99.5% and 86.7%
Compound 3.16 µM
  viability, T/C: 84.1% and 107% and 110%
Compound 10 µM
  viability, T/C: 67.2% and 78.6% and 93.8%
Curve of compound
  pIC50: < 5.00

## C=CCn1c(=O)c2cnc(Nc3ccc(N4CCN(C)CC4)cc3)nc2n1-c1cccc(C(C)(C)O)n1
Compound 0.00316 µM
  viability, T/C: 104% and 93.2% and 96.4%
Compound 0.01 µM
  viability, T/C: 122% and 109% and 68.7%
Compound 0.0316 µM
  viability, T/C: 98.9% and 94.2% and 106%
Compound 0.1 µM
  viability, T/C: 87.7% and 94.9% and 106%
Compound 0.316 µM
  viability, T/C: 90.8% and 93.2% and 71.3%
Compound 1 µM
  viability, T/C: 33.3% and 32.5% and 27.3%
Curve of compound
  pIC50: 6.16 and 6.14 and 6.26
